Assay results from patent US20250115597A1, “TYK2 INHIBITORS AND COMPOSITIONS AND METHODS THEREOF” (LYNK PHARMACEUTICALS CO. LTD., priority 2021, published 2025).
pIC50: −log10 of the molar value. ≈ marks a conversion by molar mass, not a printed value.

Tests used:
[1] = biological target: T1, TYK2 (Homo sapiens, UniProt P29597); experiment: TYK2 kinase activity, microfluidic assay (Caliper EZ Reader II); format: biochemical; conditions: TYK2 1 nM, 1 mM ATP
T1 construct: purchased Carna Biosciences
How it was run: (§1)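 Human JAK1, JAK2 or TYK2 enzyme was used in 50 mM HEPES, 10 mM MgCl2, 2 mM DTT and 0.01% Brij35, tuned to 10% conversion of a FAM-labelled peptide. Threefold dilutions of compound (top 5 µM, 1% DMSO) were pre-incubated with enzyme for 10 min, and reactions were stopped with EDTA. Phosphorylation was read by microfluidic mobility shift, and IC50 came from percent-inhibition curves.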

[2] = biological target: T2, TYK2-JH2 domain (Homo sapiens, UniProt P29597); experiment: Binding activity test for JH2 domain of TYK2 (Tb-antibody/tracer FRET); conditions: for JAK1/TYK2 selectivity: ratio JAK1-JH2 IC50 / TYK2-JH2 IC50
T2 construct: IC50 on JH2 domain activity (nM)
How it was run: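 FRET read-out after 60 min at 25° C plus overnight at 4° C; tracer displacement detected via Tb-labelled antibody on the JH2 domain. Dose-response used 11 points at 3-fold dilution.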

[3] = tested on: pSTAT1; experiment: Phosphorylation inhibition of STAT in human whole blood, IFN-alpha stimulated (flow cytometry); format: cell-based; conditions: 20 min; human whole blood, IFN-alpha 20 mins, CD3 cells; read-out: IC50 on pSTAT1 inhibition in h WB
How it was run: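 Readout is pSTAT1 (Y701) in CD3-stained cells by flow cytometry, with IC50 derived from a 4-parameter logistic equation. Fresh human PBMC or fresh whole blood received a 20-min Universal Type I IFN-alpha stimulation before fixation and cold permeabilization.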

[4] = Hepatocytes metabolic stability assay; format: in vitro ADME; conditions: cryopreserved hepatocytes, human hepatocytes, 1.0×10^6 cells/mL; for CLint scaled at 1 μM: read-out: Human hepatocyte Clint(liver); for half-life at 1 μM: read-out: Human hepatocyte stability T1/2
How it was run: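 Cryopreserved hepatocytes (1.0×10^6 cells/mL final) were incubated with test compound at 1 μM at 37 °C and sampled at 0, 15, 30, 60 and 120 min, with acetonitrile quench and LC-MS/MS. k came from log-linear % remaining versus time, giving T1/2 and CLint.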

[5] = biological target: T3, JAK1 (Homo sapiens, UniProt P23458); experiment: JAK1 kinase activity, microfluidic assay (Caliper EZ Reader II); format: biochemical; conditions: JAK1 5 nM, 1 mM ATP
T3 construct: purchased Carna Biosciences
How it was run: as §1

[6] = Kinetic solubility; format: physicochemical; conditions: phosphate buffer, aqueous buffer, kinetic from dmso stock, PBS (pH 7.4), 1% DMSO, room temperature
Method: Aliquots of 8 μL of reference and test compound stock solutions (10 mM/5 mM) are added into 792 μL of 100 mM pH 7.4 phosphate buffer. The final DMSO concentration is 1%. Sample tubes are shaken for 2 hours at 1000 rpm at room temperature. Samples are centrifuged at 12000 rpm for 10 min to precipitate un-dissolved particles. And transfer the supernatants to a new tube or plate. Add 5 μL of samples (no diluted, 10 times diluted and 100 times diluted) and standard curve samples to 95 μL of ACN containing IS for LC-MS/MS analysis.

T1 sequence (P29597 whole entry): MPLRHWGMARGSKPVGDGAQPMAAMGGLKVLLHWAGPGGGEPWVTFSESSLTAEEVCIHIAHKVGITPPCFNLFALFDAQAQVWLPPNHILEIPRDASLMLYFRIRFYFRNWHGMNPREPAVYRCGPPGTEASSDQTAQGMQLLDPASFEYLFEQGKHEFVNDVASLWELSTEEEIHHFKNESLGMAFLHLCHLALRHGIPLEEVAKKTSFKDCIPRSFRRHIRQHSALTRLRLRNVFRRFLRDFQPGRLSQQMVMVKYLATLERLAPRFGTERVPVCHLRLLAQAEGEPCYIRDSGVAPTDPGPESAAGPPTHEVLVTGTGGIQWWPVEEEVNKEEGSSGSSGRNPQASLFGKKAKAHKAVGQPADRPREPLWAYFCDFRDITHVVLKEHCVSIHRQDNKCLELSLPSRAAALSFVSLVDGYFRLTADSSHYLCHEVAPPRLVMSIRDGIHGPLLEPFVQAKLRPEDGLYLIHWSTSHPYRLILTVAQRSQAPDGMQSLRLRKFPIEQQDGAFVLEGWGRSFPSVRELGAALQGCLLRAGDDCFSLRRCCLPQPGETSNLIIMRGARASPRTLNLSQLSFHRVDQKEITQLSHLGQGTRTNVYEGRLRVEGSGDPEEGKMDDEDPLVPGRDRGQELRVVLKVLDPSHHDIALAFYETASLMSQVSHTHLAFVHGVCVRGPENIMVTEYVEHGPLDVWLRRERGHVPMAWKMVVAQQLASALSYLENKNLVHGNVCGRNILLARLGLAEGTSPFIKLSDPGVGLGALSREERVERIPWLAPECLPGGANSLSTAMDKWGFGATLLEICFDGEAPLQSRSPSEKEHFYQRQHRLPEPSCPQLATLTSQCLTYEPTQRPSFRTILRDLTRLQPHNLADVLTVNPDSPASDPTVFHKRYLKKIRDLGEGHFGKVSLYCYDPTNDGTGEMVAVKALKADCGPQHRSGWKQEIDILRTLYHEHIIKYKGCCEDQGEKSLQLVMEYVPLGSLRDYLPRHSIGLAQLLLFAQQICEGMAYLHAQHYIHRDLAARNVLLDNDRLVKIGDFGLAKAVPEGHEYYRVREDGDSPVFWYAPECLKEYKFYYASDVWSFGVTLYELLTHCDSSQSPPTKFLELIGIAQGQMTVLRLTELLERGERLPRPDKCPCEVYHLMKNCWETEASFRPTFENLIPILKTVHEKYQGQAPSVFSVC
T2 sequence (P29597 589-875 limits assumed): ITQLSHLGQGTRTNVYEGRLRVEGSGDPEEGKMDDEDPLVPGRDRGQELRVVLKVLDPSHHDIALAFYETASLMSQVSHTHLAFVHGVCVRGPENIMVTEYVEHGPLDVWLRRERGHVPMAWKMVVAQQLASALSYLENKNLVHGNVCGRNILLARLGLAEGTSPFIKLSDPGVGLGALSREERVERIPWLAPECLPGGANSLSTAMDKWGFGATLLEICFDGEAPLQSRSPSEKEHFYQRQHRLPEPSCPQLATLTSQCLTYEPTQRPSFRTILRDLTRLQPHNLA
T3 sequence (P23458 whole entry): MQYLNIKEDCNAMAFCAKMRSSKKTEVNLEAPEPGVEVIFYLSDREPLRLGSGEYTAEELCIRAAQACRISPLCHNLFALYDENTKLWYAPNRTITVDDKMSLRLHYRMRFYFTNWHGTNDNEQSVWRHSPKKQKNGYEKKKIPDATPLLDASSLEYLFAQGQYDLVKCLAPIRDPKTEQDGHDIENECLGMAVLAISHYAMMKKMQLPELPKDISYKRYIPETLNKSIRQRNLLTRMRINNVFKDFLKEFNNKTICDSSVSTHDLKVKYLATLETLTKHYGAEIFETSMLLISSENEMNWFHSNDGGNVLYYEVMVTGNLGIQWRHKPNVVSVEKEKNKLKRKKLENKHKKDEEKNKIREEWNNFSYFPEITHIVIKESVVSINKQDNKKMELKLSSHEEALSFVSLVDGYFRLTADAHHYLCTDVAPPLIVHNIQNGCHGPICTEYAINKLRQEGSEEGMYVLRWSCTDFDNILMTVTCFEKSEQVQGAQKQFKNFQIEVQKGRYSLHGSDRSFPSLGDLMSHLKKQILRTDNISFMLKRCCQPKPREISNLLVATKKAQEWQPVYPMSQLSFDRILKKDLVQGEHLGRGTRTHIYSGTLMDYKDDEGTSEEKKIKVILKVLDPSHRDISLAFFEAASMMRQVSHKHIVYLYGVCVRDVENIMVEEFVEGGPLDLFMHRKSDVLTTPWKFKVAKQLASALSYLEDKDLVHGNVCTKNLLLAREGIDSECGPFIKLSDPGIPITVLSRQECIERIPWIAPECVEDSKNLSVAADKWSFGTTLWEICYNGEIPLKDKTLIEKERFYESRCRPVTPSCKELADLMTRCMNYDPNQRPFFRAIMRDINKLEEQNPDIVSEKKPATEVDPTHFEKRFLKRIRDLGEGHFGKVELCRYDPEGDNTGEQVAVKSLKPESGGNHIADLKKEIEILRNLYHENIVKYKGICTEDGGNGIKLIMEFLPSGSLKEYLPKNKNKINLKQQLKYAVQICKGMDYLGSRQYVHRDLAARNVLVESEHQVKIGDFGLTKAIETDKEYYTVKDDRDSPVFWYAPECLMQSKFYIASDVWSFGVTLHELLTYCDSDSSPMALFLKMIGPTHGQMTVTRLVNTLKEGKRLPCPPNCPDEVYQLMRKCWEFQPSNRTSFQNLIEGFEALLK

pIC50 [1]	pIC50 [2]	JAK1/TYK2 selectivity [2]	pIC50 [3]	CLint scaled at 1 μM [4] [mL/min/kg]	half-life at 1 μM [4] [h]	pIC50 [5]	solubility at 2 h [6] [µM]	SMILES
< 5.30	9.66	67.1	6.99	18.5	1.59	< 5.30	17.6 (≈ 7.28 µg/mL)	[2H]C([2H])([2H])NC(=O)c1cnc(NC(=O)C2CC2)cc1Nc1ncc2cnn(CC)c2c1OC [Example 262, 6-(Cyclopropanecarboxamido)-4-((1-ethyl-7-methoxy-1H-pyrazolo[4,3-c]pyridin-6-yl)amino)-N-(methyl-d3)nicotinamide]
–	9.38	49.9	6.40	–	–	–	13.6 (≈ 6.33 µg/mL)	[2H]C([2H])([2H])NC(=O)c1cnc(NC(=O)C2CC2)cc1Nc1ccc2cnn(CC(F)(F)F)c2c1OC [Example 129, 6-(Cyclopropanecarboxamido)-4-((7-methoxy-1-(2,2,2-trifluoroethyl)-1H-indazol-6-yl)amino)-N-(methyl-d3)nicotinamide]
< 5.30	9.54	34.6	6.66	43.1	1.49	< 5.30	38.7 (≈ 15.9 µg/mL)	[2H]C([2H])([2H])NC(=O)c1cnc(NC(=O)C2CC2)cc1Nc1ccc2cnn(CC)c2c1OC [Example 44, 6-(Cyclopropanecarboxamido)-4-((1-ethyl-7-methoxy-1H-indazol-6-yl)amino)-N-(methyl-d3)nicotinamide]

Continued, compound first:

SMILES	pIC50 [1]	pIC50 [2]	JAK1/TYK2 selectivity [2]	pIC50 [3]	CLint scaled at 1 μM [4] [mL/min/kg]	half-life at 1 μM [4] [h]	pIC50 [5]	solubility at 2 h [6] [µM]
[2H]C([2H])([2H])NC(=O)c1cnc(NC(=O)C2CC2)cc1Nc1ccn2ncc(C#N)c2c1OC [Example 165, 4-((3-Cyano-4-methoxypyrazolo[1,5-a]pyridin-5-yl)amino)-6-(cyclopropanecarboxamido)-N-(methyl-d3)nicotinamide]	< 5.30	9.56	67.0	6.55	< 7.35	> 4	< 5.30	–
[2H]C([2H])([2H])NC(=O)c1cnc(Nc2ccc(F)cn2)cc1Nc1nn(C)c2ccn(CC)c(=O)c12 [Example 139, 4-((5-Ethyl-1-methyl-4-oxo-4,5-dihydro-1H-pyrazolo[4,3-c]pyridin-3-yl)amino)-6-((5-fluoropyridin-2-yl)amino)-N-(methyl-d3)nicotinamide]	–	9.28	23.6	5.93	< 7.35	> 4	–	–
